Measurements reported in patent publication US20230235374A1, “High Throughput Assays for Detecting Translation Readthrough Inducers” (The Trustees of the University of Pennsylvania, priority 2021, published 2023).

How the values were obtained:
Format in all cases: binding, shrimp (Artemia salina)
[1] = test system: rRNA fragments I-IV of Stop-POST5; assay: RNaseH fragment assay, Stop-POST5
Protocol: (§1) RNaseH Fragment Assay. Total RNA was prepared from the ^3H-AzAt photoaffinity labeled ribosome by phenol-chloroform extraction. RNA: DNA duplexes were formed by incubating total RNA (0.2 μM) with an oligonucleotide pair (1 μM of each, sequences shown Table 1), flanking a specific RNA region, in 22.8 μL of water at 95° C. for 2 min, followed by annealing at 50° C. for 30 s and quenching on ice. Six units (1.2 μL) of RNase H (NEB) and 6 μl of 5×RNase H Reaction Buffer were next added to the RNA: DNA duplex and incubated at 37° C. for 1 hour, followed by phenol-chloroform extraction of RNA. The digested RNA was separated on 12% TBE-Urea PAGE gel, and the target band along with the adjacent upper and bottom gels were sliced by a 2 mm gel cutter. The gel slices were crushed and the ^3H labeled rRNA fragment was extracted in water by vigorously shaking at 70° C. for 30 min, or by overnight extraction in elution buffer (0.3M sodium acetate, 0.25% SDS, 1 mM EDTA). The slurry was removed by centrifugation and the eluted ^3H labeled rRNA in the supernatant was quantified. The stoichiometry of AzAt photoincorporation was calculated based on a gel recovery yield of 20±2%, determined using an authentic sample of [^3H]-Gln-tRNA^Gln.
(§2) Testing the functional pertinence of AzAt photolabeling of 18S A1195, 28S-A3093, 28S-A2672, and 28S-2669. An RNAse H fragment assay was employed to determine whether the potential functionally significant sites identified by LASER-seq correspond to ataluren binding sites relevant for termination activity. In this assay, oligonucleotide hybridization, RNase H digestion and polyacrylamide gel electrophoresis (PAGE) were used to determine the stoichiometry of [^3H]-AzAt photoincorporation into the three rRNA fragments that together include the four nucleotides of interest: Fragment I, 18S-A1195; Fragment II, 26S-A3093; Fragment III, 26S-A2669 and 26S-A2672 (Table 5). The separate addition of four potential competitors of AzAt binding (eRF1 alone, the stably bound eRF1.eRF3.GDPNP complex, ataluren, and the ataluren-like TRID GJ072) was used to test how these affected such photoincorporation. These experiments, the results of which are summarized in Table 5, were performed at two different AzAt concentrations. eRF1 and eRF1.eRF3.GDPNP effects were measured using 300 μM AzAt, paralleling the LASER-Seq PAL experiments.

[2] = test system: rRNA fragments I-IV of 80S-IRES; assay: RNaseH fragment assay, 80S-IRES
Protocol: as §1, §2

[3] = test system: Small RNAs within Stop-POST5 complex; assay: AzAt photoincorporation into small RNAs (urea-PAGE, RNAse H fragments)
Protocol: FIG. 11 illustrates 8% Urea-PAGE resolution of small RNAs.
Photoaffinity labeling with [^3H]-AzAt. Samples in Buffer 4, typically 20 μL, were incubated in the dark (20 min for Stop-POST5 and 80S-IRES complexes, 2 min for release factors) with various concentrations of [^3H]-AzAt at 37° C., transferred to a UV-transparent cuvette which was covered with parafilm to prevent evaporation, and irradiated in a Rayonet photochemical reactor equipped with 300 nm UV lamps for 5 min at room temperature. This was followed by quenching with 2 mM DTT at 37° C. for 5 min under ambient light. The irradiation time gave complete photolysis of the phenyl azide moiety in AzAt. Photolysis was also complete at 5 min in the presence of 1 mM ataluren, ruling out internal filtering effects.
Stop-POST5 and 80S-IRES complexes. 1 μM solutions of either Stop-POST5 or 80S-S.IRES, determined by A260, were photolabeled by [^3H]-AzAt. The sample was then either directly purified by ultracentrifugation through a sucrose cushion to determine the photoincorporation stoichiometry in the complex, or subjected to phenol/chloroform extraction to determine the photoincorporation stoichiometry in the total RNA. To determine the photoincorporation background arising from incomplete removal of noncovalently bound photolyzed AzAt, AzAt was prephotolysed for 5 min before adding to the complex, followed by the 20 min incubation in dark at 37° C. and subsequent sucrose cushion purification or RNA extraction as described above.
as §1
Small RNAs. AzAt photoincorporation into the 4 small RNAs (CrPV-IRES, 5.8S rRNA, 5S rRNA, and tRNA) contained within POST5 was examined by one-dimensional (1D) urea-PAGE analysis, by RNA-Seq, and by RNAse H fragment assay (FIG. 11).

[4] = Stop-POST5, PAL, 300 μM AzAt, alone or plus competing ligand named as label
[5] = 80S-IRES, PAL, 300 μM AzAt, alone or plus competing ligand named as label
[6] = PAL, 300 μM AzAt, alone or plus competing ligand named as label

For “eRF1/eRF3/GDPNP: stably bound ternary complex of eRF1, eRF3 and GDPNP used as competing ligand”, the “Photoincorporation yields into 26S-A2669:A2672/ III: 26S 2638-2702” value [1, 4] was 0.19 ± 0.02 mole %, the “Photoincorporation yields into 26S-A3093/ II: 26S 3069-3113” value [1, 4] was 0.18 ± 0.10 mole % and the “Photoincorporation yields into RNAse H Fragment IV: 26S 1413-1476” value ([1]; Stop-POST5, PAL, 300 μM AzAt, alone or plus competing ligand named as label (eRF1 2 μM, eRF3 4 μM, GDPNP 1 mM)) was 0.20 ± 0.01%. For the same substance, the “Photoincorporation yields into 18S A1195/ I: 18S 1151-1206” value ([1]; Stop-POST5, PAL, 300 μM AzAt, alone or plus competing ligand named as label (eRF1 2 μM, eRF3 4 μM, GDPNP)) was 0.07 ± 0.03 mole %, the “effect on AzAt photoincorporation into Fragments I, II, and III” value ([1]; Stop-POST5 complex) was “strongly inhibited” and the “Photoincorporation yields into 18S A1195/ I: 18S 1151-1206” value [2, 5] was 0.56 ± 0.06 mole %. The “Photoincorporation yields into 26S-A2669:A2672/ III: 26S 2638-2702” value [2, 5] was 0.94 ± 0.23 mole %, the “Photoincorporation yields into 26S-A3093/ II: 26S 3069-3113” value [2, 5] was 0.55 ± 0.12 mole % and the “effect on AzAt photoincorporation into Fragment I” value ([2]; 80S.IRES complex) was “only partial inhibition”. For the same substance, the “effect on AzAt photoincorporation into Fragments II and III” value ([2]; 80S.IRES complex) was “essentially no inhibition”, the “Photoincorporation yields into RNAse H Fragment IV: 26S 1413-1476” value ([2]; 80S.IRES, PAL, 300 μM AzAt, alone or plus competing ligand named as label) was 0.30 ± 0.03% and the “effect on AzAt labeling of CrPV-IRES” value ([3]; 300 μM AzAt) was “partial but significant reduction”. The “Photoincorporation yields into CrPV-IRES nts1-155” value ([3]; PAL, 300 μM AzAt, alone (AzAt) or plus competing ligand named as label (eRF1 2 μM, eRF3 4 μM, GDPNP 1 mM)) was 4.6 ± 1.4 mole %, the “Photoincorporation yields into 5S rRNA” value [3, 6] was 1.3 ± 0.2 mole % and the “Photoincorporation yields into 5.8S rRNA” value [3, 6] was 0.80 ± 0.02 mole %. The “Photoincorporation yields into CrPV-IRES All” value [3, 6] was 5.4 ± 0.6 mole %, the “Photoincorporation yields into CrPV-IRES nts156-221” value [3, 6] was 2.9 ± 0.6 mole % and the “Photoincorporation yields into CrPV-IRES nts222-278” value [3, 6] was 0.08 ± 0.11 mole %. For the same substance, the “Photoincorporation yields into tRNA^Gln” value [3, 6] was 2.2 ± 0.2 mole % and the “effect on AzAt labeling of CrPV-IRES fragments 1-155 and 156-221” value ([3]; RNAse H fragment assay) was “Only minor decreases”.
